Experimental data taken from PubChem BioAssay (NCI).
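Protocol summary: plate cells (96-well), add compound at 5 concentrations, incubate 48 h, interpolate endpoints linearly. At the GI50, growth is halved. TGI is the concentration that stops growth completely.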

Key:
Experiment in all cases: NCI anticancer screen, dose series, 48 h
MDA-MB-435 = test system: MDA-MB-435
HOP-18 NSCLC = test system: HOP-18 NSCLC
XF 498 CNS = test system: XF 498 CNS
LXFL 529 NSCLC = test system: LXFL 529 NSCLC
KM20L2 colon = test system: KM20L2 colon
M19-MEL melanoma = test system: M19-MEL melanoma
DMS 273 small cell lung = test system: DMS 273 small cell lung
MDA-N = test system: MDA-N
RXF-631 renal = test system: RXF-631 renal

Row | Structure (SMILES) | GI50 (MDA-MB-435) [µM] | TGI (MDA-MB-435) [µM] | TGI (LXFL 529 NSCLC) [µM] | TGI (KM20L2 colon) [µM] | TGI (M19-MEL melanoma) [µM] | TGI (DMS 273 small cell lung) [µM] | other results
1 | CCOC(=O)c1cc2c(cc1Cl)SC(=Nc1ccccc1)N(S(=O)(=O)c1ccc(Cl)cc1)S2(=O)=O | 12.9 | 28.4 | – | – | – | – | –
2 | O=C1C(c2ccc(Br)cc2)=[N+]([O-])c2ccccc21 | – | – | 18.8 | 38.5 | 22.3 | – | TGI (HOP-18 NSCLC): 27.3 µM; TGI (XF 498 CNS): 31.3 µM
3 | Nc1ccc(C2=CC(c3ccc(Cl)cc3)N3C=CSC3=N2)cc1 (centres undefined) | 2.43 | 6.76 | – | – | – | – | –
4 | O=[N+]([O-])C=C(c1ccc(Cl)cc1)c1ccc(Cl)cc1 | – | – | 28.5 | 38.9 | – | 20.1 | –
5 | COCc1c(-c2cc3cc(C)cc(OC)c3s2)c2c(N)ncnn2c1CN1CCNC(=O)C1 | 4.29 | 24 | – | – | – | – | –
6 | Cc1ccc(/C=N/Nc2nc(Nc3ccccc3)nc(-n3nc(C)cc3C)n2)cc1 | 4.84 | 37.6 | – | – | – | – | –
7 | COc1ccc2c(c1)c(-c1nc(-c3c[nH]c4ccncc34)cs1)cn2C | 1.59 | 2.96 | – | – | – | – | –
8 | CC(=O)[O-].Cn1ccnc1CNCc1nccn1C.[Cu+2].[O-][Cl+3]([O-])([O-])[O-] | – | – | > 100 | > 100 | – | > 100 | GI50 (HOP-18 NSCLC): > 100 µM; TGI (HOP-18 NSCLC): > 100 µM; GI50 (LXFL 529 NSCLC): > 100 µM; GI50 (KM20L2 colon): > 100 µM; GI50 (DMS 273 small cell lung): > 100 µM
9 | CCN(Cc1ccccc1)C1CCN(Cc2cc(Br)ccc2O)CC1 | 30.2 | > 100 | – | – | – | – | –
10 | CN(C)c1ccc2oc(=O)c3ccccc3c2c1 | – | > 100 | – | – | – | – | TGI (MDA-N): > 100 µM
11 | CCC(C)[C@H](NC(=O)Nc1cc(C(F)(F)F)cc(C(F)(F)F)c1)C(=O)N[C@@H](Cc1cn(C)cn1)C(=O)OC (some centres undefined) | 0.825 | 1.85 | – | – | – | – | –
12 | O=C(Nc1cccc(O)c1)c1ccc(NC2=C(Cl)C(=O)N(Cc3ccc(Cl)cc3Cl)C2=O)cc1 | 1.89 | 3.63 | – | – | – | – | –
13 | CCOC(=O)C(Cc1c[nH]c2cc([N+](=O)[O-])ccc12)NS(=O)(=O)c1ccc2ccccc2c1 (centres undefined) | – | – | 32.5 | 33.9 | 30.9 | 32.1 | TGI (HOP-18 NSCLC): > 100 µM; TGI (XF 498 CNS): 31.3 µM
14 | COc1ccc2c(c1)nc(C(=O)c1ccco1)c(C(F)(F)F)[n+]2[O-] | > 100 | > 100 | – | – | – | – | –
15 | c1ccc(C2OC3(CCC[C@H]4C[C@H]43)O[C@H]2c2ccccc2)cc1 (some centres undefined) | – | – | – | > 100 | 84.8 | > 100 | TGI (XF 498 CNS): 43.8 µM; TGI (RXF-631 renal): > 100 µM
16 | COC(=O)N[C@H](C(=O)O)C(C)O[Si](C)(C)C(C)(C)C (some centres undefined) | – | > 100 | – | – | – | – | –
17 | COc1cccc(CC(C)=C(c2ccc(OCCN3CCCCC3)cc2)c2ccc(OCCN3CCCCC3)cc2)c1 | 1.67 | 3.57 | – | – | – | – | –
18 | CC1=C(SCCC(=O)OC(C[Se]C2=C(C)C(=O)c3ccccc3C2=O)C(=O)NCCCCCC(=O)OCc2ccccc2)C(=O)c2ccccc2C1=O (centres undefined) | 2.13 | 13 | – | – | – | – | –
19 | NC(=O)c1cc([N+](=O)[O-])c(Cl)c([N+](=O)[O-])c1Cl | 1.93 | 3.73 | – | – | – | – | –
20 | COC(=O)c1ccc(CN2C(=O)C(Cl)=C(Nc3cccc(Cl)c3C)C2=O)cc1 | 7.89 | 37.9 | – | – | – | – | –

Row | Structure (SMILES) | GI50 (MDA-MB-435) [µM] | TGI (MDA-MB-435) [µM] | TGI (LXFL 529 NSCLC) [µM] | TGI (KM20L2 colon) [µM] | TGI (M19-MEL melanoma) [µM] | TGI (DMS 273 small cell lung) [µM] | other results
21 | CN(c1ccc(C(=O)c2ccc(N(C)S(C)(=O)=O)cc2)cc1)S(C)(=O)=O | – | – | > 100 | > 100 | > 100 | – | –
22 | CCc1cccc(C)c1NC(=O)C(=O)CC(=O)c1ccc(Cl)s1 | – | – | > 100 | > 100 | > 100 | – | TGI (HOP-18 NSCLC): > 100 µM; TGI (RXF-631 renal): > 100 µM
23 | O=C(O)c1ccc(C2=Cc3cc(Cl)ccc3OC2)cc1 | – | – | > 100 | > 100 | > 100 | > 100 | TGI (HOP-18 NSCLC): > 100 µM; TGI (XF 498 CNS): > 100 µM
24 | CC1/C(=N\O)CC(c2ccccc2)N(C)C1c1ccccc1 (centres undefined) | – | – | > 100 | > 100 | > 100 | > 100 | TGI (RXF-631 renal): > 100 µM
25 | COC(=O)C1Cc2c(n(C)c3ccccc23)C(CCC(=O)O)N1Cc1ccccc1 (centres undefined) | – | – | > 100 | > 100 | > 100 | > 100 | TGI (XF 498 CNS): 72.5 µM; TGI (RXF-631 renal): > 100 µM
26 | Cc1csc2[n+]1-c1ccccc1N(C(=O)Nc1ccccc1)C(C)C2 (centres undefined) | > 100 | > 100 | – | – | – | – | –
27 | C[N+](C)(C)CC(=O)N/N=C(/C(=O)Nc1ccc(Br)cc1)C1C(=O)NC(=O)NC1=O | – | – | > 100 | > 100 | > 100 | > 100 | TGI (HOP-18 NSCLC): > 100 µM; TGI (RXF-631 renal): > 100 µM
28 | O=C(CCCN1CCC(O)(c2ccc(Cl)cc2)CC1)c1ccc(F)cc1 | – | 33.7 | – | – | – | – | –
29 | O=C1CC(c2ccccc2)=Nc2ccccc2N1 | – | – | > 100 | > 100 | > 100 | > 100 | TGI (HOP-18 NSCLC): > 100 µM; TGI (XF 498 CNS): > 100 µM
30 | COc1ccc(-c2nc(-c3ccc(C)cc3)cn3ccnc23)cc1 | 1.76 | > 50 | – | – | – | – | –
31 | O=C(O)[C@H](NS(=O)(=O)c1ccc(F)cc1)c1ccccc1 | – | – | > 100 | > 100 | > 100 | > 100 | TGI (HOP-18 NSCLC): > 100 µM; TGI (XF 498 CNS): > 100 µM
32 | CCOC(=O)/C(=C/c1ccc(C(=O)OC)cc1)N(CC)CC | – | – | > 100 | > 100 | > 100 | – | –
33 | CC1=C(/C=C/C(C)=C/C2CC(N(C)C)=CC(=O)O2)C(C)(C)CCC1 (centres undefined) | – | – | 24 | – | 29.3 | 27.1 | TGI (HOP-18 NSCLC): 26.5 µM; TGI (XF 498 CNS): 25.1 µM; TGI (RXF-631 renal): 27.8 µM
34 | Cc1cc2c(cc1Cl)S/C(=C/C(=O)O)C(Nc1ccc3ncsc3c1)=NS2(=O)=O | > 33.5 | > 53.4 | – | – | – | – | –
35 | C=CCN(CCNS(=O)(=O)c1ccc(C)cc1)S(=O)(=O)c1ccc(C)cc1 | – | > 100 | – | – | – | – | TGI (MDA-N): > 100 µM
36 | CCC(C)Nc1ccc(N)cc1 (centres undefined) | 4.11 | 15.3 | – | – | – | – | –
37 | Nc1nc([Se])c2ncn(C3OC(CO)C(O)C3O)c2n1 (centres undefined) | 15.1 | > 100 | – | – | – | – | –
38 | O=C(CSc1nc(-c2ccccc2)c(-c2ccccc2)[nH]1)N/N=C/c1ccc(O)cc1 | – | – | 99.5 | 55.8 | 51 | 48.3 | TGI (HOP-18 NSCLC): > 100 µM; TGI (XF 498 CNS): 99.6 µM
39 | OC(COC(c1ccccc1)(c1ccccc1)c1ccccc1)C(O)CC1SCCS1 (centres undefined) | – | 91.9 | – | – | – | – | TGI (MDA-N): 60.1 µM
